The NIST ThermoML archive (doi:10.1016/j.jct.2006.09.008)
“And” between values parts separate entries of the source, which are not always exact repeats. Equal values may be shown once.

Assay: mn = molality of the nth substance listed, in mol/kg
Details: 350 kPa, Liquid

O=[N+]([O-])[O-].O=[N+]([O-])[O-].[Mn+2] [manganese nitrate] + O
mass density
Details | m1 = 0.0248 | m1 = 0.0503 | m1 = 0.0836 | m1 = 0.5132
278.15 K | 1003.65 kg/m3 | 1007.23 kg/m3 | 1011.97 kg/m3 | 1069.81 kg/m3 and 1069.71 kg/m3
283.15 K | 1003.3 kg/m3 | 1006.89 kg/m3 | 1011.53 kg/m3 | 1068.8 kg/m3 and 1068.6 kg/m3
288.15 K | 1002.66 kg/m3 | 1006.23 kg/m3 | 1010.8 kg/m3 | 1067.5 kg/m3 and 1067.36 kg/m3
298.15 K | 1000.56 kg/m3 | 1004.07 kg/m3 | 1008.54 kg/m3 | 1064.29 kg/m3 and 1064.16 kg/m3
308.15 K | 997.52 kg/m3 | 1000.98 kg/m3 | 1005.36 kg/m3 | 1060.4 kg/m3 and 1060.29 kg/m3
318.15 K | 993.61 kg/m3 | 997.07 kg/m3 | 1001.42 kg/m3 | 1055.86 kg/m3 and 1055.72 kg/m3
328.15 K | 988.96 kg/m3 | 992.44 kg/m3 | 996.79 kg/m3 | 1050.75 kg/m3 and 1050.71 kg/m3
338.15 K | 983.93 kg/m3 | 987.31 kg/m3 | 991.63 kg/m3 | 1045.39 kg/m3 and 1045.24 kg/m3
348.15 K | 978.24 kg/m3 | 981.59 kg/m3 | 985.88 kg/m3 | 1039.4 kg/m3 and 1039.32 kg/m3
358.15 K | 972 kg/m3 | 975.36 kg/m3 | 979.63 kg/m3 | 1033.07 kg/m3 and 1032.97 kg/m3
368.15 K | 965.29 kg/m3 | 968.63 kg/m3 | 972.92 kg/m3 | 1026.26 kg/m3 and 1026.2 kg/m3

O=[N+]([O-])[O-].O=[N+]([O-])[O-].[Sr+2] [strontium nitrate] + O
mass density [kg/m3]
Details | m1 = 0.0499 | m1 = 0.1006 | m1 = 0.2005 | m1 = 0.4995 | m1 = 0.7992 | m1 = 0.9995 | m1 = 1.502 | m1 = 2.003 | m1 = 3.001
278.15 K | 1009 | 1017.14 | 1034.72 | 1082.77 | 1130.52 | 1158.71 | 1231.7 | 1297.55 | 1414.38
283.15 K | 1008.59 | 1017.1 | 1033.98 | 1082.1 | 1128.88 | 1157.52 | 1229.46 | 1295.12 | 1411.42
288.15 K | 1007.84 | 1016.26 | 1032.93 | 1080.71 | 1126.92 | 1155.34 | 1226.86 | 1292.1 | 1407.51
298.15 K | 1005.56 | 1013.81 | 1030.24 | 1077.19 | 1122.76 | 1150.87 | 1221.49 | 1286.04 | 1400.33
308.15 K | 1002.4 | 1010.56 | 1026.7 | 1073.1 | 1117.95 | 1146.06 | 1215.55 | 1279.41 | 1393.17
318.15 K | 998.47 | 1006.61 | 1022.45 | 1068.41 | 1112.6 | 1140.61 | 1209.17 | 1272.01 | 1385.59
328.15 K | 993.97 | 1001.97 | 1017.66 | 1063.12 | 1106.82 | 1134.72 | 1201.99 | 1264.61 | 1377.87
338.15 K | 988.74 | 996.66 | 1012.18 | 1057.26 | 1100.32 | 1128.27 | 1194.55 | 1256.5 | 1369.7
348.15 K | 983.02 | 990.85 | 1006.4 | 1051.04 | 1094.06 | 1121.59 | 1188.05 | 1249.78 | 1361.53
358.15 K | 976.66 | 984.57 | 999.95 | 1044.34 | 1087.19 | 1114.51 | 1180.88 | 1242.32 | 1353.05
368.15 K | 969.9 | 977.81 | 993.09 | 1037.31 | 1079.94 | 1107.09 | 1173.15 | 1234.38 | 1344.4
